Assays:
Assay type in all cases: cell-based
60 cell line panel = test: NCI 60 cell line screen, values over the whole panel; conditions: mean value over the cell line panel
IGROVI = test: NCI 60 cell line screen (SRB), Ovarian Cancer
OVCAR-8 = test: NCI 60 cell line screen (SRB), Ovarian Cancer; conditions: OVCAR-8 (Ovarian Cancer)
NCI-H226 = test: NCI 60 cell line screen (SRB), Non-Small Cell Lung Cancer
NCI-H322M = test: as above
SR = test: NCI 60 cell line screen (SRB), Leukemia
SF-268 = test: NCI 60 cell line screen (SRB), CNS Cancer; conditions: SF-268 (CNS Cancer)
PC-3 = test: NCI 60 cell line screen (SRB), Prostate Cancer; conditions: PC-3 (Prostate Cancer)
A549/ATCC = test: NCI 60 cell line screen (SRB), Non-Small Cell Lung Cancer
OVCAR-5 = test: NCI 60 cell line screen (SRB), Ovarian Cancer; conditions: OVCAR-5 (Ovarian Cancer)
LOX IMVI = test: NCI 60 cell line screen (SRB), Melanoma
HL-60(TB) = test: NCI 60 cell line screen (SRB), Leukemia; conditions: HL-60(TB) (Leukemia)
SK-OV-3 = test: NCI 60 cell line screen (SRB), Ovarian Cancer; conditions: SK-OV-3 (Ovarian Cancer)
M14 = test: NCI 60 cell line screen (SRB), Melanoma
RPMI-8226 = test: NCI 60 cell line screen (SRB), Leukemia; conditions: RPMI-8226 (Leukemia)
SW-620 = test: NCI 60 cell line screen (SRB), Colon Cancer; conditions: SW-620 (Colon Cancer)
NCI-H522 = test: NCI 60 cell line screen (SRB), Non-Small Cell Lung Cancer
KM12 = test: NCI 60 cell line screen (SRB), Colon Cancer
SK-MEL-2 = test: NCI 60 cell line screen (SRB), Melanoma; conditions: SK-MEL-2 (Melanoma)
COLO 205 = test: NCI 60 cell line screen (SRB), Colon Cancer; conditions: COLO 205 (Colon Cancer)
T-47D = test: NCI 60 cell line screen (SRB), Breast Cancer; conditions: T-47D (Breast Cancer)
[1] = system: murine keratinocyte cell line PE; test: Growth inhibition of PE cells (MTT assay); conditions: murine keratinocytes, FIGS. 1-9
Experimental: To determine the inhibitory effect of the trioxane dimers of the present invention on cell proliferation, screening assays were performed on a murine keratinocyte cell line PE. […] PE cell culture medium consisted of Eagle's minimal essential medium without calcium chloride (Whittaker Bioproducts, Walkersville, Ma.) supplemented with 8% chelexed fetal calf serum and 1% antibiotic-antimycotic (Gibco BRL) and the addition of CaCl2 to 0.05 mM Ca^++. […] (St. Louis, Mo.), and TPA was supplied by L. C. Services (Woburn, Ma.). L-[^14C]ornithine ([…]) was from Amersham/Searle Corp. (Arlington Heights, Ill.). Chemical solvents used in all assays of biological activity were of the highest grade commercially available. Growth Inhibition. […] A mitochondrial dehydrogenase reduces MTT to a blue formazan product with an absorbance maximum of 505 nm in DMSO; the number of viable cells can thus be determined spectrophotometrically. PE cells were seeded at a density of 5,000 cells/well in 50 μL of medium into 96-well microtiter plates. […] The plates were fed once at 48 h, with the readdition of the vitamin D3 analogs at this time. […] After 4 h, the MTT was removed and DMSO added to dissolve the blue formazan dye. Using a microtiter plate reader, the […] was then determined and cell number calculated from blank-subtracted absorbance values.

HT29 = test: NCI 60 cell line screen (SRB), Colon Cancer
SNB-19 = test: NCI 60 cell line screen (SRB), CNS Cancer; conditions: SNB-19 (CNS Cancer)
MCF7 = test: NCI 60 cell line screen (SRB), Breast Cancer
MDA-MB-435 = test: NCI 60 cell line screen (SRB), Breast Cancer; conditions: MDA-MB-435 (Breast Cancer)
UO-31 = test: NCI 60 cell line screen (SRB), Renal Cancer; conditions: UO-31 (Renal Cancer)
BT-549 = test: NCI 60 cell line screen (SRB), Breast Cancer; conditions: BT-549 (Breast Cancer)

For `COC1OC2(C)CCC3CCCC(CCOC(=O)c4cccc(C(=O)OCCC5CCCC6CCC7(C)OOC56C(OC)O7)c4)C31OO2` (stereo not shown) [Compound 10, Trioxane Bis-ester Dimer], the “Log10GI50 MG MID” value (60 cell line panel) was −5.77 M, the “Log10LC50 MG MID” value (60 cell line panel) was −4.30 M and the “Log10TGI MG MID” value (60 cell line panel) was −4.52 M. For the same compound, the Log10GI50 (IGROVI) was −5.34 M, the Log10LC50 (IGROVI) was greater than −4.30 M and the Log10TGI (IGROVI) was −4.42 M. The Log10GI50 (OVCAR-8) was −6.13 M, the Log10LC50 (OVCAR-8) was greater than −4.30 M and the Log10TGI (OVCAR-8) was greater than −4.30 M. It also gave a Log10GI50 (NCI-H226) of −5.64 M, a Log10LC50 (NCI-H226) greater than −4.30 M and a Log10TGI (NCI-H226) greater than −4.30 M. The Log10GI50 (NCI-H322M) was greater than −4.30 M, the Log10LC50 (NCI-H322M) was greater than −4.30 M and the Log10TGI (NCI-H322M) was greater than −4.0 M. For the same compound, the Log10GI50 (SR) was less than −8.30 M, the Log10LC50 (SR) was greater than −4.30 M and the Log10TGI (SR) was −7.49 M. It also gave a Log10GI50 (SF-268) of −5.36 M, a Log10LC50 (SF-268) greater than −4.30 M and a Log10TGI (SF-268) greater than −4.30 M. The Log10GI50 (PC-3) was −7.09 M, the Log10LC50 (PC-3) was greater than −4.30 M and the Log10TGI (PC-3) was greater than −4.30 M. It also gave a Log10GI50 (A549/ATCC) of −5.89 M, a Log10LC50 (A549/ATCC) greater than −4.30 M and a Log10TGI (A549/ATCC) greater than −4.30 M. For the same compound, the Log10GI50 (OVCAR-5) was −5.68 M, the Log10LC50 (OVCAR-5) was greater than −4.30 M and the Log10TGI (OVCAR-5) was greater than −4.30 M. For the same compound, the Log10GI50 (LOX IMVI) was −6.27 M, the Log10LC50 (LOX IMVI) was greater than −4.30 M and the Log10TGI (LOX IMVI) was greater than −4.30 M. It also gave a Log10GI50 (HL-60(TB)) of −7.21 M, a Log10LC50 (HL-60(TB)) greater than −4.30 M and a Log10TGI (HL-60(TB)) of −6.56 M. It also gave a Log10LC50 (SK-OV-3) greater than −4.30 M, a Log10TGI (SK-OV-3) greater than −4.30 M and a Log10GI50 (M14) of −5.08 M. For the same compound, the Log10LC50 (M14) was greater than −4.30 M, the Log10TGI (M14) was greater than −4.30 M and the Log10GI50 (RPMI-8226) was −6.97 M. It also gave a Log10LC50 (RPMI-8226) greater than −4.30 M, a Log10TGI (RPMI-8226) of −5.73 M and a Log10GI50 (SW-620) of −6.47 M. It also gave a Log10LC50 (SW-620) greater than −4.30 M, a Log10TGI (SW-620) greater than −4.30 M and a Log10GI50 (NCI-H522) of −6.13 M. It also gave a Log10LC50 (NCI-H522) greater than −4.30 M, a Log10TGI (NCI-H522) greater than −4.30 M and a Log10GI50 (KM12) of −5.97 M. The Log10LC50 (KM12) was greater than −4.30 M, the Log10TGI (KM12) was greater than −4.30 M and the Log10GI50 (SK-MEL-2) was −5.47 M. For the same compound, the Log10LC50 (SK-MEL-2) was greater than −4.30 M, the Log10TGI (SK-MEL-2) was greater than −4.30 M and the Log10GI50 (COLO 205) was −6.45 M. For the same compound, the Log10LC50 (COLO 205) was −4.48 M, the Log10TGI (COLO 205) was −5.18 M and the Log10GI50 (T-47D) was −6.76 M. For the same compound, the Log10LC50 (T-47D) was greater than −4.30 M, the Log10TGI (T-47D) was greater than −4.30 M and the antiproliferative activity [1] was “high antiproliferative activity”. For the same compound, the Log10GI50 (HT29) was −6.35 M, the Log10LC50 (HT29) was greater than −4.30 M and the Log10TGI (HT29) was greater than −4.30 M. It also gave a Log10GI50 (SNB-19) greater than −4.30 M, a Log10LC50 (SNB-19) greater than −4.30 M and a Log10TGI (SNB-19) greater than −4.30 M. It also gave a Log10GI50 (MCF7) of −5.92 M, a Log10LC50 (MCF7) greater than −4.30 M and a Log10TGI (MCF7) greater than −4.30 M. For the same compound, the Log10GI50 (MDA-MB-435) was −5.93 M, the Log10LC50 (MDA-MB-435) was greater than −4.30 M and the Log10TGI (MDA-MB-435) was greater than −4.30 M. For the same compound, the Log10GI50 (UO-31) was −5.96 M, the Log10LC50 (UO-31) was greater than −4.30 M and the Log10TGI (UO-31) was greater than −4.30 M. For the same compound, the Log10GI50 (BT-549) was −5.47 M, the Log10LC50 (BT-549) was greater than −4.30 M and the Log10TGI (BT-549) was greater than −4.30 M.
Work on `CC(=O)O[C@H]1C(=O)[C@@]2(C)[C@H]([C@H](OC(=O)c3ccccc3)[C@]3(O)C[C@H](OC(=O)[C@H](O)[C@@H](NC(=O)c4ccccc4)c4ccccc4)C(C)=C1C3(C)C)[C@]1(OC(C)=O)CO[C@@H]1C[C@@H]2O` [Paclitaxel, paclitaxel, reference compound] yielded a Log10GI50 (IGROVI) of −8.61 M, a Log10LC50 (IGROVI) greater than −4.00 M and a Log10TGI (IGROVI) of −4.19 M. It also gave a Log10GI50 (OVCAR-8) of −10.75 M, a Log10LC50 (OVCAR-8) greater than −4.00 M and a Log10GI50 (NCI-H322M) of −10.12 M. It also gave a Log10LC50 (NCI-H322M) greater than −4.00 M, a Log10TGI (NCI-H322M) of −4.46 M and a Log10LC50 (SR) greater than −4.00 M. It also gave a Log10TGI (SR) greater than −4.00 M, a Log10GI50 (PC-3) of −10.85 M and a Log10LC50 (PC-3) greater than −4.00 M. It also gave a Log10TGI (PC-3) greater than −4.00 M, a Log10GI50 (OVCAR-5) of −9.38 M and a Log10LC50 (OVCAR-5) greater than −4.00 M. It also gave a Log10TGI (OVCAR-5) of −4.92 M, a Log10GI50 (LOX IMVI) of −11.80 M and a Log10LC50 (LOX IMVI) greater than −4.15 M. For the same compound, the Log10TGI (LOX IMVI) was −4.65 M, the Log10GI50 (HL-60(TB)) was −11.57 M and the Log10LC50 (HL-60(TB)) was greater than −4.53 M. It also gave a Log10TGI (HL-60(TB)) of −4.53 M, a Log10GI50 (M14) of −11.73 M and a Log10LC50 (M14) of −4.13 M. It also gave a Log10TGI (M14) of −4.62 M, a Log10GI50 (RPMI-8226) of less than −13.00 M and a Log10LC50 (RPMI-8226) greater than −4.00 M. The Log10TGI (RPMI-8226) was greater than −4.00 M, the Log10GI50 (SW-620) was −11.60 M and the Log10LC50 (SW-620) was greater than −4.00 M. The Log10TGI (SW-620) was greater than −4.00 M, the Log10GI50 (NCI-H522) was greater than −13.00 M and the Log10LC50 (NCI-H522) was greater than −4.00 M. It also gave a Log10TGI (NCI-H522) of −11.20 M, a Log10GI50 (KM12) of −11.43 M and a Log10LC50 (KM12) greater than −4.00 M. For the same compound, the Log10TGI (KM12) was −4.36 M, the Log10GI50 (SK-MEL-2) was −9.53 M and the Log10LC50 (SK-MEL-2) was greater than −4.00 M. It also gave a Log10GI50 (COLO 205) of −11.07 M, a Log10LC50 (COLO 205) greater than −4.41 M and a Log10GI50 (T-47D) of −9.81 M. For the same compound, the Log10LC50 (T-47D) was greater than −4.00 M, the Log10GI50 (HT29) was less than −13.00 M and the Log10LC50 (HT29) was −4.39 M. The Log10GI50 (SNB-19) was −8.98 M, the Log10LC50 (SNB-19) was greater than −4.00 M and the Log10TGI (SNB-19) was greater than −4.00 M. For the same compound, the Log10GI50 (MCF7) was −11.69 M, the Log10LC50 (MCF7) was greater than −4.00 M and the Log10GI50 (MDA-MB-435) was less than −13.00 M. It also gave a Log10GI50 (UO-31) of −6.09 M, a Log10GI50 (BT-549) of −9.31 M and a Log10LC50 (BT-549) greater than −4.00 M. For the same compound, the Log10TGI (BT-549) was −6.32 M.

Reference: patent USRE38117E1, “Trioxane dimer compound having antiproliferative and antitumor activities” (Hauser, Inc., priority 1995, dated 2003)
